Results: patent US7175993B2 (Saladax Biomedical, Inc., priority 2004, dated 2007)

Columns and labels:
Format in all cases: binding, mice
[1] = tested on: Monoclonal Ab #2 (monoclonal antibody to taxol); assay: Indirect competitive microtiter plate immunoassay (ELISA), Monoclonal Ab #2
Description: (§1) The assay was performed by incubating 50 μL of the analytes to be measured with 50 μL of antibody (produced in example 4) diluted to a titer determined in example 8a. […] Following this incubation the wells of the plate were washed three times with 0.02 M TRIS, 0.9% NaCl, 0.5% Tween-80 and 0.001% Thimerosal, pH 7.8 to remove any material that was not bound. […] To develop a measurable color in the wells, washing was followed by the addition of 100 μL of TMB (TMB Liquid Substrate, Sigma), a substrate for HRP, to develop color in a 10 minute incubation with shaking at room temperature. Following the incubation for color development, 50 μL of stop solution (1.5% sodium fluoride in di H2O) was added to each well to stop the color development and after 10 seconds of shaking the absorbance was determined at 650 nm (Molecular Devices Plate Reader). The amount of antibody in a well was proportional to the absorbance measured and inversely proportional to the amount of taxol in the sample. The absorbance of the color in the wells containing analyte is compared to that with no analyte and a standard curve is generated. […] The cross-reactivity with 6-α-hydroxypaclitaxel was less than 60%. […]
(§2) The assay was performed by incubating 50 μL of the analytes to be measured with 50 μL of antibody (produced in example 4) diluted to a titer determined in example 8a. […] Following this incubation the wells of the plate were washed three times with 0.02 M TRIS, 0.9% NaCl, 0.5% Tween-80 and 0.001% Thimerosal, pH 7.8 to remove any material that was not bound. […] This secondary antibody was capable of binding specifically with murine immunoglobulins producing a colored product when incubated with a substrate. […] To develop a measurable color in the wells, washing was followed by the addition of 100 μL of TMB (TMB Liquid Substrate, Sigma), a substrate for HRP, to develop color in a 10 minute incubation with shaking at room temperature. Following the incubation for color development, 50 μL of stop solution (1.5% sodium fluoride in di H2O) was added to each well to stop the color development and after 10 seconds of shaking the absorbance was determined at 650 nm (Molecular Devices Plate Reader). The amount of antibody in a well was proportional to the absorbance measured and inversely proportional to the amount of taxol in the sample. The absorbance of the color in the wells containing analyte is compared to that with no analyte and a standard curve is generated. […]

[2] = tested on: Monoclonal Ab #1 (monoclonal antibody to taxol); assay: Indirect competitive microtiter plate immunoassay (ELISA), Monoclonal Ab #1
Description: as §1, §2

[3] = tested on: taxol polyclonal antibodies; assay: Indirect competitive microtiter plate immunoassay (ELISA), polyclonal antibodies to taxol (pool of antisera); settings: for Cross-reactivity relative to taxol: polyclonal antibody pool
Description: as §1, §2

[4] = plate sensitized with Taxol Derivative 5
[5] = plate sensitized with Taxol Derivative 8
[6] = microtiter plate sensitized with Taxol Derivative 5 (example 9a)
[7] = microtiter plate sensitized with Taxol Derivative 8 (example 9b)

SMILES | Cross-reactivity relative to taxol [1, 4] | Cross-reactivity relative to taxol [1, 5] [%] | Cross-reactivity relative to taxol [2, 4] [%] | Cross-reactivity relative to taxol [2, 5] [%] | Cross-reactivity relative to taxol [3, 6] | Cross-reactivity relative to taxol [3, 7] [%] | IC50 ([3]; antisera of the four individual mice combined in the pool) [µg/mL]
CC(=O)O[C@H]1C(=O)[C@@]2(C)[C@H]([C@H](OC(=O)c3ccccc3)[C@]3(O)C[C@H](OC(=O)[C@H](O)[C@@H](NC(=O)c4ccccc4)c4ccc(O)cc4)C(C)=C1C3(C)C)[C@]1(OC(C)=O)CO[C@@H]1C[C@@H]2O [3′-p-Hydroxypaclitaxel, 3′-p-hydroxypaclitaxel] | ≦2.3% | 1.5 | 5.9 | 8.1 | ≦10% | 0.57 | –
CC(=O)O[C@H]1C(=O)[C@@]2(C)[C@H]([C@H](OC(=O)c3ccccc3)[C@]3(O)C[C@H](OC(=O)[C@H](O)[C@@H](NC(=O)c4ccccc4)c4ccccc4)C(C)=C1C3(C)C)[C@]1(OC(C)=O)CO[C@@H]1[C@@H](O)[C@@H]2O [6-α-Hydroxypaclitaxel, 6-α-hydroxypaclitaxel] | ≦4.6% | 2.9 | 5.1 | 6.5 | <58% | 1.60 | –
CC(=O)O[C@H]1C(=O)[C@@]2(C)[C@H]([C@H](OC(=O)c3ccccc3)[C@]3(O)C[C@H](O)C(C)=C1C3(C)C)[C@]1(OC(C)=O)CO[C@@H]1C[C@@H]2O [Baccatin III] | ≦0.19% | 0.13 | 0.13 | 0.17 | 0.10% | 0.10 | –
CC(=O)O[C@@]12CO[C@@H]1C[C@H](O)[C@@]1(C)C(=O)[C@H](O)C3=C(C)[C@@H](OC(=O)[C@H](O)[C@@H](NC(=O)OC(C)(C)C)c4ccccc4)C[C@@](O)([C@@H](OC(=O)c4ccccc4)[C@H]21)C3(C)C [Docetaxel] | 101% | 85 | 76 | 77 | ≦5% | 0.16 | –
CC(=O)O[C@H]1C(=O)[C@@]2(C)[C@H]([C@H](OC(=O)c3ccccc3)[C@]3(O)C[C@H](OC(=O)[C@H](O)[C@@H](NC(=O)c4ccccc4)c4ccccc4)C(C)=C1C3(C)C)[C@]1(OC(C)=O)CO[C@@H]1C[C@@H]2O [Taxol (Paclitaxel), Taxol] | – | – | – | – | – | – | < 0.02
